The record followed here is patent US9918990B2, “Substituted pyrrolo[2,3-c]pyridines and pyrazolo[3,4-c]pyridines as BET protein inhibitors” (Incyte Corporation, priority 2013, dated 2018).

Molecules are shown by their SMILES.

One test deals with BRD4-BD1 (Homo sapiens (Human), UniProt O60885). The experiment in a line: BRD4 AlphaScreen assay, BRD4-BD1. The test is classed as binding. Particulars: H4Ac4 peptide, 75 min, room temperature, read-out: BRD4 BD-1 enzyme IC50. Put shortly:
(§1)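 AlphaScreen read after 75 min dark incubation at room temperature, inhibitors serially diluted in DMSO and added before other components. IC50 from fit of percent control activity versus log inhibitor concentration.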

Another test concerns C-myc. The test is described as follows: KMS.12.BM C-myc ELISA assay. The test is classed as cell-based. Particulars: Homo sapiens; KMS.12.BM cells, 2 hours, concentration required for 50% C-myc inhibition. Put shortly: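 Human myeloma KMS.12.BM cells in RPMI/10% FBS were exposed to a compound concentration range for 2 h, then lysed with protease inhibitors. C-myc in clarified lysates was measured by ELISA. IC50 is the concentration giving 50% C-myc inhibition relative to untreated cells.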

The next test concerns the target BRD4-BD2 (Homo sapiens (Human), UniProt O60885). The experiment in a line: BRD4 AlphaScreen assay, BRD4-BD2. The test is classed as binding. Particulars: H4Ac4 peptide, 75 min, room temperature, read-out: BRD4 BD-2 enzyme IC50. Put shortly: as §1
The subject of a further test is KMS.12.BM cells. The experiment in a line: KMS.12.BM cell viability assay (Cell Titer-GLO, ATP quantitation). The test is classed as cell-based. Particulars: Homo sapiens, 72 h, 3 days, concentration required for 50% cell death, read-out: KMS cellular IC50. Put shortly:
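Human myeloma KMS.12.BM cells, 5000 cells/well in RPMI with 10% FBS, were exposed to a compound concentration range for 3 days. Viability was read by Cell Titer-GLO ATP luminescence relative to untreated cells; IC50 is the concentration giving 50% cell death.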

As for `Cn1cc(-c2ccc3ncc(=O)[nH]c3c2Oc2ccc(F)cc2F)c2cn[nH]c2c1=O` [Example 75, 8-(2,4-Difluorophenoxy)-7-(6-methyl-7-oxo-6,7-dihydro-1H-pyrazolo[3,4-c]pyridin-4-yl)quinoxalin-2(1H)-one], the IC50 at BRD4-BD1 was < 100 nM; with C-myc, ≤ 1000 nM; at BRD4-BD2 it was < 100 nM; in the test with KMS.12.BM cells, ≤ 1000 nM.

As to `Cn1cc(-c2ccc3c(cnn3C)c2OCC2CC2)c2cc[nH]c2c1=O` [Example 76, 4-[4-(Cyclopropylmethoxy)-1-methyl-1H-indazol-5-yl]-6-methyl-1,6-dihydro-7H-pyrrolo[2,3-c]pyridin-7-one], the IC50 at BRD4-BD1 is < 100 nM; in the test on C-myc it was ≤ 1000 nM; at BRD4-BD2 it was < 100 nM; in the test on KMS.12.BM cells, ≤ 1000 nM.

On to `Cn1cc(-c2ccc3c(cnn3C)c2OCC2CC2)c2cn[nH]c2c1=O` [Example 77, 4-[4-(Cyclopropylmethoxy)-1-methyl-1H-indazol-5-yl]-6-methyl-1,6-dihydro-7H-pyrazolo[3,4-c]pyridin-7-one], for which the IC50 at BRD4-BD1 was < 100 nM; in the test on C-myc, ≤ 1000 nM; on BRD4-BD2, < 100 nM; in the test on KMS.12.BM cells it was ≤ 1000 nM.

On to `CC(O)c1cc(-c2cn(C)c(=O)c3[nH]ncc23)c(Oc2ccc(F)cc2F)c2ncn(C)c12` (centres unmarked) [Example 78, 4-[4-(2,4-Difluorophenoxy)-7-(1-hydroxyethyl)-1-methyl-1H-benzimidazol-5-yl]-6-methyl-1,6-dihydro-7H-pyrazolo[3,4-c]pyridin-7-one], for which the half-maximal inhibitory concentration (IC50) on BRD4-BD1 is < 100 nM; with C-myc, ≤ 1000 nM; on BRD4-BD2 it was < 100 nM; with KMS.12.BM cells, ≤ 1000 nM.

As for `Cn1cc(-c2ccc3c([nH]c(=O)n3C)c2Oc2ccc(Cl)cc2)c2cc[nH]c2c1=O` [Example 86, 4-(4-Chlorophenoxy)-1-methyl-5-(6-methyl-7-oxo-6,7-dihydro-1H-pyrrolo[2,3-c]pyridin-4-yl)-1,3-dihydro-2H-benzimidazol-2-one], the half-maximal inhibitory concentration (IC50) on BRD4-BD1 was < 100 nM; with C-myc, ≤ 1000 nM; at BRD4-BD2, < 100 nM; in the test with KMS.12.BM cells, ≤ 1000 nM.

Regarding `Cn1cc(-c2ccc3c([nH]c(=O)n3C)c2Oc2cccc(Cl)c2)c2cc[nH]c2c1=O` [Example 87, 4-(3-Chlorophenoxy)-1-methyl-5-(6-methyl-7-oxo-6,7-dihydro-1H-pyrrolo[2,3-c]pyridin-4-yl)-1,3-dihydro-2H-benzimidazol-2-one], the half-maximal inhibitory concentration (IC50) on BRD4-BD1 was < 100 nM; with C-myc, ≤ 1000 nM; on BRD4-BD2, < 100 nM; with KMS.12.BM cells, ≤ 1000 nM.

With `Cn1cc(-c2ccc3c([nH]c(=O)n3C)c2OCC2CCCCC2)c2cc[nH]c2c1=O` [Example 88, 4-(Cyclohexylmethoxy)-1-methyl-5-(6-methyl-7-oxo-6,7-dihydro-1H-pyrrolo[2,3-c]pyridin-4-yl)-1,3-dihydro-2H-benzimidazol-2-one], the IC50 at BRD4-BD1 is < 100 nM; in the test on C-myc, ≤ 1000 nM; on BRD4-BD2 it was < 100 nM; with KMS.12.BM cells, ≤ 1000 nM.

Consider `Cn1cc(-c2ccc3c([nH]c(=O)n3C)c2OC2CCC2)c2cc[nH]c2c1=O` [Example 89, 4-(Cyclobutyloxy)-1-methyl-5-(6-methyl-7-oxo-6,7-dihydro-1H-pyrrolo[2,3-c]pyridin-4-yl)-1,3-dihydro-2H-benzimidazol-2-one], for which the IC50 on BRD4-BD1 is < 100 nM; in the test on C-myc it was ≤ 1000 nM; at BRD4-BD2, < 100 nM; with KMS.12.BM cells it was ≤ 1000 nM.

Take `Cn1cc(-c2ccc3c([nH]c(=O)n3C)c2OC2CCCCC2)c2cc[nH]c2c1=O` [Example 90, 4-(Cyclohexyloxy)-1-methyl-5-(6-methyl-7-oxo-6,7-dihydro-1H-pyrrolo[2,3-c]pyridin-4-yl)-1,3-dihydro-2H-benzimidazol-2-one]: the IC50 at BRD4-BD1 is < 100 nM; with C-myc, ≤ 1000 nM; on BRD4-BD2, < 100 nM; in the test on KMS.12.BM cells, ≤ 1000 nM.

For the molecule `Cn1cc(-c2ccc3c([nH]c(=O)n3C)c2OC2CCCOC2)c2cc[nH]c2c1=O` (centres unmarked) [Example 91, 1-Methyl-5-(6-methyl-7-oxo-6,7-dihydro-1H-pyrrolo[2,3-c]pyridin-4-yl)-4-(tetrahydro-2H-pyran-3-yloxy)-1,3-dihydro-2H-benzimidazol-2-one], the IC50 was < 100 nM on BRD4-BD1, ≤ 1000 nM in the test on C-myc, < 100 nM at BRD4-BD2 and ≤ 1000 nM in the test on KMS.12.BM cells.

For `Cn1cc(-c2ccc3c([nH]c(=O)n3C)c2OCC2CCCC2)c2cc[nH]c2c1=O` [Example 92, 4-(Cyclopentylmethoxy)-1-methyl-5-(6-methyl-7-oxo-6,7-dihydro-1H-pyrrolo[2,3-c]pyridin-4-yl)-1,3-dihydro-2H-benzimidazol-2-one], the concentration for half-maximal inhibition (IC50) is < 100 nM at BRD4-BD1, ≤ 1000 nM in the test with C-myc, < 100 nM at BRD4-BD2 and ≤ 1000 nM in the test with KMS.12.BM cells.

With `Cn1cc(-c2ccc3c([nH]c(=O)n3C)c2OC2CCCC2)c2cc[nH]c2c1=O` [Example 93, 4-(Cyclopentyloxy)-1-methyl-5-(6-methyl-7-oxo-6,7-dihydro-1H-pyrrolo[2,3-c]pyridin-4-yl)-1,3-dihydro-2H-benzimidazol-2-one], the IC50 is < 100 nM on BRD4-BD1, ≤ 1000 nM in the test on C-myc, < 100 nM at BRD4-BD2 and ≤ 1000 nM with KMS.12.BM cells.

As for `Cn1cc(-c2ccc3c(c2Oc2ccccc2)NC(=O)CO3)c2cc[nH]c2c1=O` [Example 94, 6-(6-Methyl-7-oxo-6,7-dihydro-1H-pyrrolo[2,3-c]pyridin-4-yl)-5-phenoxy-2H-1,4-benzoxazin-3(4H)-one], the 50% inhibitory concentration (IC50) was < 100 nM at BRD4-BD1, ≤ 1000 nM in the test with C-myc, < 100 nM at BRD4-BD2 and ≤ 1000 nM in the test on KMS.12.BM cells.

Consider `Cn1cc(-c2ccc3ocnc3c2Oc2ccccc2)c2cc[nH]c2c1=O` [Example 96, 6-Methyl-4-(4-phenoxy-1,3-benzoxazol-5-yl)-1,6-dihydro-7H-pyrrolo[2,3-c]pyridin-7-one], for which the IC50 on BRD4-BD1 was < 100 nM; with C-myc, ≤ 1000 nM; on BRD4-BD2, < 100 nM; in the test on KMS.12.BM cells, ≤ 1000 nM.

For the molecule `Cn1cc(-c2ccc3oc(CN)nc3c2Oc2ccccc2)c2cc[nH]c2c1=O` [Example 103, 4-[2-(Aminomethyl)-4-phenoxy-1,3-benzoxazol-5-yl]-6-methyl-1,6-dihydro-7H-pyrrolo[2,3-c]pyridin-7-one], the IC50 was < 100 nM at BRD4-BD1, ≤ 1000 nM in the test with C-myc, < 100 nM at BRD4-BD2 and ≤ 1000 nM with KMS.12.BM cells.

Take `CC(=O)NCc1nc2c(Oc3ccccc3)c(-c3cn(C)c(=O)c4[nH]ccc34)ccc2o1` [Example 104, N-{[5-(6-Methyl-7-oxo-6,7-dihydro-1H-pyrrolo[2,3-c]pyridin-4-yl)-4-phenoxy-1,3-benzoxazol-2-yl]methyl}acetamide]: the concentration for half-maximal inhibition (IC50) on BRD4-BD1 is < 100 nM; in the test on C-myc it was ≤ 1000 nM; on BRD4-BD2, < 100 nM; in the test with KMS.12.BM cells, ≤ 1000 nM.

Take `Cn1cc(-c2ccc3oc(CNS(C)(=O)=O)nc3c2Oc2ccccc2)c2cc[nH]c2c1=O` [Example 105, N-{[5-(6-Methyl-7-oxo-6,7-dihydro-1H-pyrrolo[2,3-c]pyridin-4-yl)-4-phenoxy-1,3-benzoxazol-2-yl]methyl}methanesulfonamide]: the IC50 at BRD4-BD1 was < 100 nM; with C-myc, ≤ 1000 nM; at BRD4-BD2 it was < 100 nM; with KMS.12.BM cells it was ≤ 1000 nM.
